Assay results as given in patent US20220107328A1, “METHODS OF TREATING LIVER DISEASES” (Camp4 Therapeutics Corporation, priority 2018, published 2022).

Legend:
PNPLA3 mRNA [1] = assay: qRT-PCR of PNPLA3 mRNA in human primary hepatic stellate cells; format: cell-based; conditions: for Primary Stellate cells PNPLA3 (fold change in mRNA expression): 3 μM, relative to GAPDH; for Relative PNPLA3 mRNA levels RQ: hepatic stellate cells
COL1A1 mRNA = assay: qRT-PCR of COL1A1 mRNA in human primary hepatic stellate cells; format: cell-based; conditions: for Primary Stellate cells COL1A1 (fold change in mRNA expression): 3 μM, relative to GAPDH; for Relative COL1A1 mRNA levels RQ: hepatic stellate cells
Procedure: Cells were plated at a density of 17000 cells/well in a 96-well plate and allowed to adhere overnight. The following day cell culture media was replenished with the indicated concentration(s) of compound for 18 hours. […] Medium was removed after 18 hours and cells were processed for further analysis, e.g. qRT-PCR.
Analysis of the fold changes in expression as measured by qRT-PCR were performed using the technique below. The control was DMSO, and the treatment was the selected compound (CPD). The internal control was GAPDH or B-Actin (or otherwise indicated), and the gene of interest is the target. First, the averages of the 4 conditions were calculated for normalization: DMSO:GAPDH, DMSO:Target, CPD: GAPDH, and CPD:Target. Next, the ΔCT of both control and treatment were calculated to normalize to internal control (GAPDH) using (DMSO:Target)−(DMSO:GAPDH)=ΔCT control and (CPD:Target)−(CPD: GAPDH)=ΔCT experimental. Then, the ΔΔCT was calculated by ΔCT experimental−ΔCT control.
Candidate compounds were tested in stellate cells for their ability to modulate PNPLA3 and COL1A1. Stellate cells were treated with serial dilutions of the compounds, ranging from 0.1 μM to 100 μM. Changes in PNPLA3 (or COL1A1) mRNA levels in stellate cells were analyzed with qRT-PCR.

PCSK9 mRNA = assay: qRT-PCR of PCSK9 mRNA in primary hepatocytes; format: cell-based, human; conditions: donor 4178, 3 μM, relative to GUSB
[2] = test system: phosphorylated S6 (pS6/S6); assay: Western blot of phosphorylated S6 in human hepatocytes; format: cell-based; conditions: 3 μM; for phosphorylated S6 (pS6/S6) over time (in words): 35 min to 20 hrs, relative to DMSO control; for pS6/S6: human hepatocytes, mTORC1 pathway, time point not stated
Procedure: (§1) Levels of phosphorylated S6, AKT, and NDRG1 proteins were determined as compared to total S6, AKT, and NDRG1 protein. PNPLA3 mRNA expression was quantified and normalized to housekeeping gene GUSB.

[3] = test system: phosphorylated AKT (pAKT/AKT); assay: Western blot of phosphorylated AKT in human hepatocytes; format: cell-based; conditions: 3 μM; for phosphorylated AKT (pAKT/AKT) over time (in words): 35 min to 20 hrs, relative to DMSO control; for pAKT (473)/AKT: human hepatocytes, mTORC2 pathway, time point not stated
Procedure: as §1

[4] = test system: phosphorylated NDRG1 (pNDRG1/NDRG1); assay: Western blot of phosphorylated NDRG1 in human hepatocytes; format: cell-based; conditions: 3 μM, mTORC2 pathway, time point not stated
Procedure: as §1

[5] = test system: phosphorylated 4EBP1 (p4EBP1c (37/46)/4EBP1c); assay: Western blot of phosphorylated 4EBP1 in human hepatocytes; format: cell-based; conditions: 3 μM, mTORC1 pathway, time point not stated
PNPLA3 mRNA [6] = assay: qRT-PCR of PNPLA3 mRNA in compound-treated primary human hepatocytes; conditions: for PNPLA3 mRNA expression level over time (in words) / PNPLA3 mRNA: 3 μM, normalized to GUSB; for PNPLA3 mRNA expression level over time (in words): 35 min to 20 hrs; for Primary Hepatocytes 4178 PNPLA3 (fold change in mRNA expression): donor 4178, 3 μM; for Primary Hepatocytes 4178 PNPLA3 (fold change in mRNA expression) / Primary Hepatocytes 4282 PNPLA3 (fold change in mRNA expression): relative to GUSB; for Primary Hepatocytes 4282 PNPLA3 (fold change in mRNA expression): donor 4282, 3 μM; for PNPLA3 mRNA: time point not stated; for Relative PINPLA3 mRNA: hepatocytes
[7] = test system: multiple human tumor cell types; conditions: combined with cytotoxic, hormonal, and targeted agents; cited from earlier work
PNPLA3 mRNA [8] = assay: qRT-PCR of PNPLA3 mRNA in compound-treated mouse hepatocytes; format: cell-based; conditions: mouse hepatocytes, 1 μM, normalized to ACTB
MMP2 mRNA = assay: qRT-PCR of fibrosis related genes in stellate cells, MMP2; format: cell-based, human; conditions: stellate cells P7, 0.5 μM, 18 hours
Procedure: (§2) Stellate cells P7 were treated with 0.5 μM of each of the indicated compounds for 18 hours. Cells were processed for RNA extraction and qRT-PCR as previously described. The assay was repeated in triplicate.

TIM2 mRNA = assay: qRT-PCR of fibrosis related genes in stellate cells, TIM2; format: cell-based, human; conditions: stellate cells P7, 0.5 μM, 18 hours
Procedure: as §2

TGFB1 mRNA = assay: qRT-PCR of fibrosis related genes in stellate cells, TGFB1; format: cell-based, human; conditions: stellate cells P7, 0.5 μM, 18 hours
Procedure: as §2

COL1A2 mRNA = assay: qRT-PCR of fibrosis related genes in stellate cells, COL1A2; format: cell-based, human; conditions: stellate cells P7, 0.5 μM, 18 hours
Procedure: as §2

ACTA2 mRNA = assay: qRT-PCR of fibrosis related genes in stellate cells, ACTA2; format: cell-based, human; conditions: stellate cells P7, 0.5 μM, 18 hours
Procedure: as §2

mouse hepatocytes = assay: Cytotoxicity in mouse hepatocytes; format: cell-based; conditions: 10 μM
PNPLA3 expression = assay: RNA-seq of compound-treated primary human hepatocytes; format: cell-based; conditions: for Fold change (Log 2) vs untreated: PNPLA3 expression, RNA-seq
Procedure: Cryopreserved hepatocytes were cultured in plating media for 16 hours, transferred to maintenance media for 4 hours. Cultured on serum-free media for 2 hours, then a compound was added. The hepatocytes were maintained on the serum-free media for 16 hours prior to gene expression analysis.
Human hepatocytes cultured as described above were plated in 24-well format, adding 375,000 cells per well in a volume of 500 μl plating medium. Four hours before treatment, cells were washed with PBS and the medium was changed to either: fresh maintenance medium (complete) or modified maintenance medium.
Compound stocks were prepared at 1000× final concentration and added in a 2-step dilution to the medium to reduce risk of a compound precipitating out of solution when added to the cells, and to ensure reasonable pipetting volumes. One at a time, each compound was first diluted 10-fold in warm (about 37° C.) modified maintenance medium (initial dilution=ID), mixed by vortexing, and the ID was diluted 100-fold into the cell culture (e.g. 5.1 μl into 1 well of a 24-well plate containing 0.5 mL medium). The plate was mixed by carefully swirling and after all wells were treated and returned to the incubator overnight. If desired, separate plates/wells were treated with vehicle-only controls and/or positive controls. If using multi-well plates, controls were included on each plate. After about 18 hours, cells were harvested for further analysis, e.g., ChIP-seq, RNA-seq, ATAC-seq, etc.
The expression level of each gene was quantified with normalized FPKM (fragments per kilobase of exon per million mapped fragments). The differentially expressed genes were called using Cuffdiff v2.2.1 with q value<0.01 and log2 fold change>=1 or <=−1.
(§3) To identify small molecules that modulate PNPLA3, primary human hepatocytes were prepared as a monoculture, and at least one small molecule compound was applied to the cells.
(§4) RNA-seq was performed to determine the effects of the compounds on PNPLA3 expression in hepatocytes. Fold change was calculated by dividing the level of expression in the cell system that had been perturbed by the level of expression in an unperturbed system. Changes in expression having a p-value≤0.05 were considered significant.

PNPLA5 expression = assay: RNA-seq of compound-treated primary human hepatocytes, PNPLA5; format: cell-based
Procedure: as §3, §4

[9] = stellate cells P7, 0.5 μM, 18 hours

Cc1nc(NC(=O)N2CCC[C@H]2C(N)=O)sc1-c1ccnc(C(C)(C)C(F)(F)F)c1 [Alpelisib (BYL719), Alpelisib]
Primary Stellate cells PNPLA3 (fold change in mRNA expression) (PNPLA3 mRNA [1]): 0.94 | Primary Stellate cells COL1A1 (fold change in mRNA expression) (COL1A1 mRNA): 1.16 | Primary Hepatocytes 4178 PCSK9 (fold change in mRNA expression) (PCSK9 mRNA): 0.67 | phosphorylated S6 (pS6/S6) over time (in words) [2]: increased at 2 hours, then decreased | pS6/S6 [2]: 1.11 | phosphorylated AKT (pAKT/AKT) over time (in words) [3]: largely did not change | pAKT (473)/AKT [3]: 0.34 | p-NDRG1/NDRG1 [4]: 1.11 | p4EBP1c (37/46)#/4EBP1c [5]: 0.61 | PNPLA3 mRNA expression level over time (in words) (PNPLA3 mRNA [6]): largely did not change | PNPLA3 mRNA expression level over time (in words) (PNPLA3 mRNA [6]; listed as Alpenisib): did not lead to decreased PNPLA3 expression | Primary Hepatocytes 4178 PNPLA3 (fold change in mRNA expression) (PNPLA3 mRNA [6]): 0.80 | Primary Hepatocytes 4282 PNPLA3 (fold change in mRNA expression) (PNPLA3 mRNA [6]): 0.69 | PNPLA3 mRNA (PNPLA3 mRNA [6]; human hepatocytes): 0.971

C[C@@]1(C(=O)Nc2ccc(F)nc2)CCCN1c1nc(Nc2cc(C3CC3)[nH]n2)c2cccn2n1 [BMS-754807]
combination index [7]: < 1.0

CS(=O)(=O)N1CCc2c(-c3cnc(N)nc3)nc(N3CCOCC3)nc21 [CH5132799]
Primary Stellate cells PNPLA3 (fold change in mRNA expression) (PNPLA3 mRNA [1]): 0.56 | Primary Stellate cells COL1A1 (fold change in mRNA expression) (COL1A1 mRNA): 0.81 | Primary Hepatocytes 4178 PCSK9 (fold change in mRNA expression) (PCSK9 mRNA): 0.51 | phosphorylated S6 (pS6/S6) over time (in words) [2]: decreased at 1 hour | pS6/S6 [2]: 0.06 | phosphorylated AKT (pAKT/AKT) over time (in words) [3]: increased at 3 hours and decreased to pre-treatment levels at 4.5 hours | pAKT (473)/AKT [3]: 0.22 | p-NDRG1/NDRG1 [4]: 0.47 | p4EBP1c (37/46)#/4EBP1c [5]: 0.40 | PNPLA3 mRNA expression level over time (in words) (PNPLA3 mRNA [6]): decreased levels of PNPLA3 expression after 3 hours | PNPLA3 mRNA expression level over time (in words) (PNPLA3 mRNA [6]; listed as CH51332799): down regulated PNPLA3 gene expression | Primary Hepatocytes 4178 PNPLA3 (fold change in mRNA expression) (PNPLA3 mRNA [6]): 0.49 | Primary Hepatocytes 4282 PNPLA3 (fold change in mRNA expression) (PNPLA3 mRNA [6]): 0.60 | Relative PINPLA3 mRNA (PNPLA3 mRNA [6]; 0.1 uM): 0.940 | Relative PINPLA3 mRNA (PNPLA3 mRNA [6]; 0.3 uM): 0.870 | Relative PINPLA3 mRNA (PNPLA3 mRNA [6]; 1 uM): 0.743 | Relative PINPLA3 mRNA (PNPLA3 mRNA [6]; 3 uM): 0.491 | PNPLA3 mRNA (PNPLA3 mRNA [6]; human hepatocytes): 0.511

CC(C)n1nc(-c2ccc3oc(N)nc3c2)c2c(N)ncnc21 [INK-128]
Relative PNPLA3 mRNA levels (PNPLA3 mRNA [8]): 0.30 ± 0.14 | Primary Stellate cells PNPLA3 (fold change in mRNA expression) (PNPLA3 mRNA [1]): 0.56 | Relative PNPLA3 mRNA levels RQ (PNPLA3 mRNA [1]; 0.01 μM): 0.40 | Relative PNPLA3 mRNA levels RQ (PNPLA3 mRNA [1]; 0.1 μM): 0.28 | Relative PNPLA3 mRNA levels RQ (PNPLA3 mRNA [1]; 1 μM): 0.58 | Relative PNPLA3 mRNA levels RQ (PNPLA3 mRNA [1]; 10 μM): 0.58 | Relative mRNA PNPLA3 (PNPLA3 mRNA [1]; [9]): 0.28 ± 0.01 | Primary Stellate cells COL1A1 (fold change in mRNA expression) (COL1A1 mRNA): 0.47 | Relative COL1A1 mRNA levels RQ (COL1A1 mRNA; 0.01 μM): 1.05 | Relative COL1A1 mRNA levels RQ (COL1A1 mRNA; 0.1 μM): 0.27 | Relative COL1A1 mRNA levels RQ (COL1A1 mRNA; 1 μM): 0.32 | Relative COL1A1 mRNA levels RQ (COL1A1 mRNA; 10 μM): 0.21 | Relative mRNA COL1A1 (COL1A1 mRNA; [9]): 0.23 ± 0.01 | Primary Hepatocytes 4178 PCSK9 (fold change in mRNA expression) (PCSK9 mRNA): 0.98 | Relative mRNA MMP2 (MMP2 mRNA): 1.53 ± 0.05 | Relative mRNA TIMP2 (TIM2 mRNA): 1.26 ± 0.01 | Relative mRNA TGFB1 (TGFB1 mRNA): 1.20 ± 0.02 | Relative mRNA COL1A2 (COL1A2 mRNA): 0.30 ± 0.01 | Relative mRNA ACTA2 (ACTA2 mRNA): 0.61 ± 0.02 | Primary Hepatocytes 4178 PNPLA3 (fold change in mRNA expression) (PNPLA3 mRNA [6]): 1.50 | Primary Hepatocytes 4282 PNPLA3 (fold change in mRNA expression) (PNPLA3 mRNA [6]): 1.63

C1=C/COCc2cc(ccc2OCCN2CCCC2)Nc2nccc(n2)-c2cccc(c2)COC/1 [Pacritinib]
cytotoxicity / tolerability (mouse hepatocytes): slight cytotoxicity

COc1cc(Nc2ncc(F)c(Nc3ccc4c(n3)N(COP(=O)([O-])[O-])C(=O)C(C)(C)O4)n2)cc(OC)c1OC.[Na+].[Na+] [R788, fostamatinib disodium hexahydrate]
Fold change (Log 2) vs untreated (PNPLA3 expression): −1.38 | Relative PNPLA3 mRNA levels (PNPLA3 mRNA [6]; Syk pathway inhibitors, 10 μM, human hepatocytes, normalized to B2M, mean of three replicates ± standard deviation): 0.77 ± 0.02

CN1C(=O)c2sccc2N(C)c2nc(Nc3ccc(S(N)(=O)=O)cc3)ncc21 [XMU-MP-1]
Fold change (Log 2) vs untreated (PNPLA3 expression): −0.66

CO[C@H]1C[C@@H]2CC[C@@H](C)[C@@](O)(O2)C(=O)C(=O)N2CCCC[C@H]2C(=O)O[C@H]([C@H](C)C[C@@H]2CC[C@@H](O)[C@H](OC)C2)CC(=O)[C@H](C)/C=C(\C)[C@@H](O)[C@@H](OC)C(=O)[C@H](C)C[C@H](C)/C=C/C=C/C=C/1C [rapamycin]
Primary Stellate cells PNPLA3 (fold change in mRNA expression) (PNPLA3 mRNA [1]): 0.49 | Primary Stellate cells COL1A1 (fold change in mRNA expression) (COL1A1 mRNA): 1.43 | Primary Hepatocytes 4178 PCSK9 (fold change in mRNA expression) (PCSK9 mRNA): 1.37 | pS6/S6 [2]: 0.07 | pAKT (473)/AKT [3]: 2.55 | p-NDRG1/NDRG1 [4]: 1.76 | p4EBP1c (37/46)#/4EBP1c [5]: 0.49 | Primary Hepatocytes 4178 PNPLA3 (fold change in mRNA expression) (PNPLA3 mRNA [6]): 1.50 | Primary Hepatocytes 4282 PNPLA3 (fold change in mRNA expression) (PNPLA3 mRNA [6]): 1.10 | PNPLA3 mRNA (PNPLA3 mRNA [6]; human hepatocytes): 1.2

Activin
PNPLA3 expression in the RNA-seq study (in words) (PNPLA3 expression): best upregulators of PNPLA3 and PNPLA5 | PNPLA5 expression in the RNA-seq study (in words) (PNPLA5 expression): best upregulators of PNPLA3 and PNPLA5

B1: GDF2 (protein, UniProt Q9UK05 320-429, looked up)
Growth/differentiation factor …: SAGAGSHCQKTSLRVNFEDIGWDSWIIAPKEYEAYECKGGCFFPLADDVTPTKHAIVQTLVHLKFPTKVGKACCVPTKLSPISVLYKDDMGVPTLKYHYEGMSVAECGCR
PNPLA3 expression in the RNA-seq study (in words) (PNPLA3 expression): best upregulators of PNPLA3 and PNPLA5 | PNPLA5 expression in the RNA-seq study (in words) (PNPLA5 expression): best upregulators of PNPLA3 and PNPLA5
